Source: PMC10949600, “Iso-mukaadial acetate and ursolic acid acetate bind to Plasmodium Falciparum heat shock protein 70: towards targeting parasite protein folding pathway” (BMC Chemistry, 2024)
Where two headings read alike, the source gives them in different places.

Molecular target: T1, PfHsp70-1 (Plasmodium falciparum, UniProt P11144)
T1 construct: recombinant PfHsp70-1 (pQE30/PfHsp70-1)
Test: SPR, PfHsp70-1 immobilized on CMD 3-D gold chip by amine coupling
Format: binding
Text: SPR, PfHsp70-1 immobilized on CMD 3-D gold chip by amine coupling on PfHsp70-1 | PfHsp70 binds to either of the two compounds within the micromolar range of affinity

T1 sequence (P11144 whole entry): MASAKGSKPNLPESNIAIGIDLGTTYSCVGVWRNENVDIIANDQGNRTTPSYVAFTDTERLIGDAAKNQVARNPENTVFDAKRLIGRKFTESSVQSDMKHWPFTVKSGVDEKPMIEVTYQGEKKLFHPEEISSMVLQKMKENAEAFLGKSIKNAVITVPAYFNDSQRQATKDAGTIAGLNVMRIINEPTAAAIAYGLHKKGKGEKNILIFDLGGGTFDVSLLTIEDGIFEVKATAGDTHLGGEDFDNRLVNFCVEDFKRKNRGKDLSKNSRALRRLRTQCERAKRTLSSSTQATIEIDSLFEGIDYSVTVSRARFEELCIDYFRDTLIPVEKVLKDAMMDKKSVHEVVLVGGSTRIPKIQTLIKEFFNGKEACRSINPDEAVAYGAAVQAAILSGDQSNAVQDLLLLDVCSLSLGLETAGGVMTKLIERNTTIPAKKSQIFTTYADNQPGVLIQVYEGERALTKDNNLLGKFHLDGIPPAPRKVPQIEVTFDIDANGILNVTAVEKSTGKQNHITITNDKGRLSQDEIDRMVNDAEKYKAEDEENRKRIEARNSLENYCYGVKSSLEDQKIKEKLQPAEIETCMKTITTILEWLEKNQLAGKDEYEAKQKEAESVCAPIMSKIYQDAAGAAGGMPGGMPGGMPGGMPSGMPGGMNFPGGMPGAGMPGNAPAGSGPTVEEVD

In the case of CC(=O)O[C@H]1CC[C@]2(C)[C@H]3CC=C4[C@@H]5[C@@H](C)[C@H](C)CC[C@]5(C(=O)O)CC[C@@]4(C)[C@]3(C)CC[C@H]2C1(C)C [UAA, ursolic acid acetate], the Kd is reported as 4.03 µM.
With iso-mukaadial acetate [IMA] the Kd (read-out: KD) was 9.89 µM.
